Measured values reported in publication PMC6499206, “Quantification of Volatile Metabolites Derived From Garlic (Allium sativum) in Human Urine” (Frontiers in Nutrition, 2019).

Assay: Quantification of garlic-derived metabolites in human urine after ingestion of 3 g raw garlic (SIDA, SAFE, HRGC-MS / HRGC-GC-MS)
Type: in vivo
Settings: 3 g raw garlic
Excerpt: Human urine samples were obtained from 18 volunteers (age 22–38 years, mean 27 years; 11 females, 7 males); thereby, one volunteer conducted the whole experimental series twice. At the time of examination, volunteers reported no known illness that might have potentially influenced the metabolism or the excretion of urine. The test persons were instructed to avoid foods that were rich in sulfur-containing substances at the testing day as well as 2 days preceding the testing day, namely garlic, onion, wild garlic, chives, cabbage, and leek, and were only allowed to consume the garlic sample provided in the course of the experiments. Additionally, subjects were asked to keep records of the food (including food supplements) and beverages they consumed during these 3 testing days. Generally, the overall panelists' requirements were in accordance with our previous studies ([5], [16]).
On the sampling day, the outer garlic cloves of a whole garlic bulb were peeled and cut into ~3 mm cubes by using a garlic cutter (Genius GmbH, Limburg/Lahn, Germany). Subsequently these cubes were thoroughly mixed and aliquoted into 3 g portions. Three to four test persons conducted the experiment at the same day. Each test person was asked to ingest a garlic portion of 3 g. In total, eight consecutive urine samples were provided by each test person, comprising one whole urine set. The samples were collected in sterile brown glass bottles, with sampling times as follows: one sample was provided directly prior to garlic consumption. The series of the second to eighth sample was then obtained at about 0.5, 1, 2, 4, 6, 8, and 24 h after garlic consumption, respectively. Between the first urine sample (prior to garlic consumption) and the seventh urine sample (8 h after garlic consumption) test persons only spent urine at the specific time points mentioned before. Another sample was provided at the next morning (24 h after garlic consumption). Between the samples provided 8 and 24 h after garlic consumption no urine was collected. All samples were immediately placed into a −80°C freezer and were kept frozen until further analysis.
The samples of each set were termed according to their sampling time. The following list provides the time intervals that are related to the respective sample name: • - pre: before garlic consumption • - 0.5 h post: 0.4–0.8 h after garlic consumption • - 1 h post: 0.9–1.3 h after garlic consumption • - 2 h post: 1.8 h−2.2 h after garlic consumption • - 4 h post: 3.8–4.4 h after garlic consumption • - 6 h post: 5.8–6.4 h after garlic consumption • - 8 h post: 7.8–8.4 h after garlic consumption • - 24 h post: 23.8–25.6 h after garlic consumption
A creatinine kit (Labor+Technik Eberhard Lehmann GmbH, Berlin, Germany) was used to determine the creatinine content in each urine sample. The determination principle of this kit is based on the reaction of creatinine with picric acid under basic conditions (Jaffé reaction). The formed complex was detected photometrically at a wavelength of 492 nm.
For quantification purposes, the deuterated standards ^2H3-AMS, ^2H3-AMSO, and ^2H3-AMSO2 were added to the sample and stirred for 10 min. Subsequently, DCM was added in a ratio of 1:2 (DCM/human urine; v/v) and this solution was stirred for further 30 min at room temperature. To isolate the volatile fraction from the urine samples we then applied SAFE-distillation ([17]), thereby distilling the respective samples at 50°C. After completion of the distillation process, 10 mL of DCM were applied in each case to rinse the SAFE apparatus and to ensure complete transition of the volatile compounds. This process was repeated with another 10 mL of DCM. After thawing, the obtained aqueous distillate phase was extracted three times with 25 mL DCM. The organic phases were combined, dried over anhydrous Na2SO4 and concentrated to a total volume of 100 μL by means of Vigreux distillation and subsequent micro-distillation at 50°C. […]

metabolite concentration in urine, creatinine-normalized (U VII, 1 h post (1.08 h)): 0.8 µg/mmol creatinine
metabolite concentration in urine (U VII, 2 h post (2.00 h)): 0.8 µg/kg
metabolite concentration in urine, creatinine-normalized (U VII, 2 h post (2.00 h)): 0.8 µg/mmol creatinine
metabolite concentration in urine (U VII, 4 h post (4.00 h)): 0.6 µg/kg
metabolite concentration in urine, creatinine-normalized (U VII, 4 h post (4.00 h)): 0.3 µg/mmol creatinine
metabolite concentration in urine (U VII, 6 h post (6.00 h)): 0.7 µg/kg
metabolite concentration in urine, creatinine-normalized (U VII, 6 h post (6.00 h)): 0.2 µg/mmol creatinine
metabolite concentration in urine (U VII, 8 h post (8.00 h)): 0.4 µg/kg
metabolite concentration in urine, creatinine-normalized (U VII, 8 h post (8.00 h)): 0.2 µg/mmol creatinine
metabolite concentration in urine (U VII, 24 h post (24.00 h)): traces^1
metabolite concentration in urine, creatinine-normalized (U VII, 24 h post (24.00 h)): traces^1
metabolite concentration in urine (U VII, pre (-0.25 h)): traces^1
metabolite concentration in urine, creatinine-normalized (U VII, pre (-0.25 h)): traces^1
metabolite concentration in urine (U VIII, 0.5 h post (0.52 h)): 1.9 µg/kg
metabolite concentration in urine, creatinine-normalized (U VIII, 0.5 h post (0.52 h)): 2.3 µg/mmol creatinine
metabolite concentration in urine (U VIII, 1 h post (1.08 h)): 1.9 µg/kg
metabolite concentration in urine, creatinine-normalized (U VIII, 1 h post (1.08 h)): 1.1 µg/mmol creatinine
metabolite concentration in urine (U VIII, 2 h post (2.08 h)): 1.5 µg/kg
metabolite concentration in urine, creatinine-normalized (U VIII, 2 h post (2.08 h)): 1.4 µg/mmol creatinine
metabolite concentration in urine (U VIII, 4 h post (4.07 h)): 1.6 µg/kg
metabolite concentration in urine, creatinine-normalized (U VIII, 4 h post (4.07 h)): 0.7 µg/mmol creatinine
metabolite concentration in urine (U VIII, 6 h post (6.08 h)): 1.3 µg/kg
metabolite concentration in urine, creatinine-normalized (U VIII, 6 h post (6.08 h)): 0.3 µg/mmol creatinine
metabolite concentration in urine (U VIII, 8 h post (7.90 h)): 0.8 µg/kg
metabolite concentration in urine, creatinine-normalized (U VIII, 8 h post (7.90 h)): 0.3 µg/mmol creatinine
metabolite concentration in urine (U VIII, 24 h post (23.83 h)): 0.3 µg/kg
metabolite concentration in urine, creatinine-normalized (U VIII, 24 h post (23.83 h)): 0.1 µg/mmol creatinine
metabolite concentration in urine (U VIII, pre (-0.33 h)): 0.5 µg/kg
metabolite concentration in urine, creatinine-normalized (U VIII, pre (-0.33 h)): 0.1 µg/mmol creatinine
metabolite concentration in urine (U X, 0.5 h post (0.53 h)): 0.4 µg/kg
metabolite concentration in urine, creatinine-normalized (U X, 0.5 h post (0.53 h)): 0.2 µg/mmol creatinine
metabolite concentration in urine (U X, 1 h post (1.03 h)): 0.4 µg/kg
metabolite concentration in urine, creatinine-normalized (U X, 1 h post (1.03 h)): 0.5 µg/mmol creatinine
metabolite concentration in urine (U X, 2 h post (2.03 h)): 0.3 µg/kg
metabolite concentration in urine, creatinine-normalized (U X, 2 h post (2.03 h)): 0.5 µg/mmol creatinine
metabolite concentration in urine (U X, 4 h post (3.85 h)): 0.4 µg/kg
metabolite concentration in urine, creatinine-normalized (U X, 4 h post (3.85 h)): 0.3 µg/mmol creatinine
metabolite concentration in urine (U X, 6 h post (5.80 h)): 0.5 µg/kg
metabolite concentration in urine, creatinine-normalized (U X, 6 h post (5.80 h)): 0.2 µg/mmol creatinine
metabolite concentration in urine (U X, 8 h post (7.75 h)): 0.3 µg/kg
metabolite concentration in urine, creatinine-normalized (U X, 8 h post (7.75 h)): 0.1 µg/mmol creatinine
metabolite concentration in urine (U X, 24 h post (23.97 h)): 0.2 µg/kg
metabolite concentration in urine, creatinine-normalized (U X, 24 h post (23.97 h)): 0.02 µg/mmol creatinine
metabolite concentration in urine (U X, pre (-0.07 h)): < LOD^1
metabolite concentration in urine, creatinine-normalized (U X, pre (-0.07 h)): < LOD^1
metabolite concentration in urine (U XI, 0.5 h post (0.50 h)): 0.4 µg/kg
metabolite concentration in urine, creatinine-normalized (U XI, 0.5 h post (0.50 h)): 0.4 µg/mmol creatinine
metabolite concentration in urine (U XI, 1 h post (1.02 h)): 0.6 µg/kg
metabolite concentration in urine, creatinine-normalized (U XI, 1 h post (1.02 h)): 0.7 µg/mmol creatinine
metabolite concentration in urine (U XI, 2 h post (2.00 h)): 0.5 µg/kg
metabolite concentration in urine, creatinine-normalized (U XI, 2 h post (2.00 h)): 0.7 µg/mmol creatinine
metabolite concentration in urine (U XI, pre (-0.08 h)): 0.8 µg/kg
metabolite concentration in urine, creatinine-normalized (U XI, pre (-0.08 h)): 0.2 µg/mmol creatinine
metabolite concentration in urine (U XII, 0.5 h post (0.48 h)): 0.3 µg/kg
metabolite concentration in urine, creatinine-normalized (U XII, 0.5 h post (0.48 h)): 0.04 µg/mmol creatinine
metabolite concentration in urine (U XII, 1 h post (1.03 h)): 0.3 µg/kg
metabolite concentration in urine, creatinine-normalized (U XII, 1 h post (1.03 h)): 0.3 µg/mmol creatinine
metabolite concentration in urine (U XII, 2 h post (1.85 h)): 0.9 µg/kg
SMILES: C=CCSC [AMS, allyl methyl sulfide]
